Among the test systems are ACHN renal; CAKI-1 renal; DU-145 prostate; EKVX NSCLC; HL-60(TB) leukemia; HT29 colon; LOX IMVI melanoma; M14 melanoma; MDA-MB-435; MDA-N; OVCAR-3 ovarian; SK-MEL-5 melanoma; SNB-19 CNS; UACC-257 melanoma; NCI-H522 lung.
Holding throughout (test): NCI anticancer screen, dose series, 48 h

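Where inhibition never reached the appropriate level, the endpoint shown equals the highest concentration tested. Otherwise, values were interpolated linearly from a five-concentration, 48-hour dose response in 96-well plates. At the TGI there is no net growth.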

`COc1ccc(/C(O)=C/c2nc3cccnc3nc2/C=C(\O)c2ccc(OC)cc2)cc1`: the TGI is 53.5 µM in the assay with ACHN renal; 46.5 µM in the assay on CAKI-1 renal; more than 100 µM in the assay on DU-145 prostate; 82.1 µM with EKVX NSCLC; more than 100 µM in the assay with HL-60(TB) leukemia; 79.3 µM in the assay with HT29 colon. Besides, the TGI in the assay on LOX IMVI melanoma was 44.5 µM; in the assay with M14 melanoma, 69.2 µM; in the assay with MDA-MB-435, 76.4 µM; with MDA-N, more than 100 µM; in the assay on OVCAR-3 ovarian it was 38.8 µM; in the assay with SK-MEL-5 melanoma it was 78.3 µM. In addition, the values for the TGI in the assay with SNB-19 CNS and with UACC-257 melanoma were 57.5 µM and more than 100 µM, respectively.
As for `c1ccc(-n2nc3ccc4nonc4c3n2)cc1`, the TGI with ACHN renal, in the assay with CAKI-1 renal, in the assay on DU-145 prostate, in the assay on EKVX NSCLC, in the assay with HL-60(TB) leukemia and with HT29 colon was more than 100 µM in each case. The TGI in the assay on LOX IMVI melanoma, in the assay with M14 melanoma, with MDA-MB-435, in the assay on MDA-N, in the assay with OVCAR-3 ovarian and in the assay on SK-MEL-5 melanoma was more than 100 µM throughout. Also, the TGI in the assay on SNB-19 CNS and in the assay on UACC-257 melanoma was more than 100 µM throughout.
Take `CCN(CC)c1ccc2cc(C(=O)Nc3ccccc3)c(=N)oc2c1`: the TGI in the assay with ACHN renal, in the assay with CAKI-1 renal, in the assay with DU-145 prostate, with EKVX NSCLC, in the assay on HL-60(TB) leukemia and with HT29 colon was more than 100 µM throughout. For the same compound, the TGI with LOX IMVI melanoma, in the assay with M14 melanoma, in the assay on MDA-MB-435, in the assay with MDA-N, in the assay with SK-MEL-5 melanoma and in the assay on SNB-19 CNS was more than 100 µM throughout. The compound also displayed a TGI in the assay with UACC-257 melanoma of more than 100 µM.
`C=C(C)[C@H]1C=C[C@@H](OC(=O)c2cccnc2)[C@@]23CO[C@@](C)([C@H](OC(=O)c4cccnc4)[C@@]4(OC(C)=O)C[C@H](C)[C@H](OCCC)[C@@H]4[C@H]2OC(C)=O)[C@H]13`: the TGI is more than 15 µM with ACHN renal; more than 15 µM with CAKI-1 renal; more than 15 µM in the assay with DU-145 prostate; more than 15 µM in the assay with EKVX NSCLC; 14.1 µM in the assay on HL-60(TB) leukemia; more than 15 µM in the assay on LOX IMVI melanoma. Besides, the TGI in the assay with M14 melanoma, with MDA-MB-435, in the assay with MDA-N, in the assay with NCI-H522 lung, with OVCAR-3 ovarian and in the assay with SK-MEL-5 melanoma was more than 15 µM in each case. In addition, the TGI in the assay on SNB-19 CNS and with UACC-257 melanoma was more than 15 µM in each case.
Turning to `CC1=C/C(=N\O)C(C(O)(C(F)(F)F)C(F)(F)F)C(C)(C)C1` (stereo not drawn), the TGI with ACHN renal, in the assay with CAKI-1 renal, with DU-145 prostate, with EKVX NSCLC, in the assay on HT29 colon and in the assay on LOX IMVI melanoma was more than 10 µM throughout. The TGI in the assay on M14 melanoma, in the assay on MDA-MB-435, in the assay with MDA-N, with NCI-H522 lung, in the assay on OVCAR-3 ovarian and with SK-MEL-5 melanoma was more than 10 µM in each case. For the same compound, the TGI with SNB-19 CNS and in the assay on UACC-257 melanoma was more than 10 µM throughout.
In the case of `C=CCSC1=N/C(=C\c2cccs2)C(=O)N1CC=C`, the TGI is more than 100 µM in the assay on ACHN renal; more than 100 µM in the assay on CAKI-1 renal; more than 100 µM with DU-145 prostate; 71.4 µM in the assay with EKVX NSCLC; more than 100 µM in the assay on HT29 colon; more than 100 µM with LOX IMVI melanoma. Further, the TGI in the assay with M14 melanoma, in the assay on MDA-MB-435, in the assay with MDA-N, with NCI-H522 lung, in the assay with OVCAR-3 ovarian and with SK-MEL-5 melanoma was more than 100 µM each time. Further, the TGI with SNB-19 CNS and with UACC-257 melanoma was more than 100 µM throughout.
On to `COC(CC1(/C=C/O[Si](C(C)C)(C(C)C)C(C)C)C(=O)N(C)c2ccccc21)OC` (stereo not drawn), for which the TGI in the assay with ACHN renal, in the assay with CAKI-1 renal, in the assay with DU-145 prostate, in the assay with EKVX NSCLC, in the assay with HL-60(TB) leukemia and with LOX IMVI melanoma was more than 100 µM in each case. The TGI with M14 melanoma, in the assay on MDA-MB-435, with MDA-N, in the assay on OVCAR-3 ovarian, in the assay with SK-MEL-5 melanoma and in the assay with SNB-19 CNS was more than 100 µM each time. Further, the TGI with UACC-257 melanoma is more than 100 µM.
Regarding `CCN1C(=O)C(C)S/C1=N\NC(=O)CSc1nc2ccccc2c(=O)n1CC` (stereo not drawn), the TGI in the assay on ACHN renal, in the assay with CAKI-1 renal, in the assay with DU-145 prostate, with EKVX NSCLC, in the assay with HL-60(TB) leukemia and with LOX IMVI melanoma was more than 100 µM each time. The TGI with M14 melanoma, in the assay on MDA-MB-435, in the assay on MDA-N, in the assay with NCI-H522 lung, in the assay with OVCAR-3 ovarian and in the assay with SK-MEL-5 melanoma was more than 100 µM throughout. For the same compound, the TGI in the assay on SNB-19 CNS and in the assay on UACC-257 melanoma was more than 100 µM each time.
As for `COC(=O)/C=C1/CCC(C)(C(=O)NS(=O)(=O)c2ccc(C)cc2)C1(C)C` (stereo not drawn), the TGI in the assay with ACHN renal, in the assay on CAKI-1 renal, in the assay on DU-145 prostate, in the assay on EKVX NSCLC, with HL-60(TB) leukemia and in the assay with LOX IMVI melanoma was more than 100 µM in each case. For the same compound, the TGI with M14 melanoma, in the assay with MDA-MB-435, in the assay on MDA-N, in the assay with NCI-H522 lung, in the assay on OVCAR-3 ovarian and in the assay on SK-MEL-5 melanoma was more than 100 µM in each case. Moreover, the TGI in the assay with SNB-19 CNS and in the assay with UACC-257 melanoma was more than 100 µM in each case.
In the case of `CC(=O)Oc1ccccc1/C=C/C(=O)/C=C/c1ccccc1OC(C)=O`, the TGI stood at 3.62 µM in the assay on ACHN renal; 10.4 µM in the assay with CAKI-1 renal; 9.59 µM in the assay on DU-145 prostate; 9.9 µM in the assay on EKVX NSCLC; 4.25 µM in the assay on HT29 colon; 2.01 µM in the assay on LOX IMVI melanoma. Moreover, the TGI with M14 melanoma was determined as 4.45 µM; in the assay on MDA-MB-435, 5.37 µM; with MDA-N it was 6.67 µM; in the assay with NCI-H522 lung, 4.69 µM; in the assay with OVCAR-3 ovarian, 4.23 µM; in the assay with SK-MEL-5 melanoma, 3.45 µM. Further, the figures for the TGI with SNB-19 CNS and in the assay with UACC-257 melanoma were 6.53 µM and 2.96 µM, respectively.

These data come from PubChem BioAssay (NCI).
